Experimental data taken from patent US11993640B2, “Treating inflammatory lung disease” (United States Government as represented by the Department …, priority 2019, dated 2024).
Like-named read-outs stand apart in the source and are kept apart here. Non-standard residues stand in square brackets, D forms with d. Residues, ends and D or L forms follow the SMILES beside them. *: point of attachment. Phenylacetyl(2,3,4,5,6-F5) = O=C(Cc1c(F)c(F)c(F)c(F)c1F)*; Phe(F5) = N[C@@H](Cc1c(F)c(F)c(F)c(F)c1F)C(=O)O; hArg = N=C(N)NCCCC[C@H](N)C(=O)O; 12Ado = NCCCCCCCCCCCC(=O)O; Nle = CCCC[C@H](N)C(=O)O; Orn = NCCC[C@H](N)C(=O)O; Abu = CC[C@H](N)C(=O)O; PhAc = O=C(Cc1ccccc1)*

Columns and labels:
KATOIII cells = assay: In vitro cell viability, stomach cancer KATOIII; format: cell-based, human; conditions: 5 μM, 72 h; relative to MIA602 = 1; Table 3A
Procedure, shortened: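 Cells grown to ~60% confluence, starved 24 h in 0.5% FBS medium, then exposed to antagonists at 1, 2.5 or 5 μM or 0.1% DMSO vehicle for 72 h, in quintuplicate with medium renewed every 48 h. Viability by CellTiter 96 AQueous One; reported as inhibitory potency relative to MIA602.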

J82 cells = assay: In vitro cell viability, urothelial cancer J82; format: cell-based, human; conditions: 5 μM, 72 h; relative to MIA602 = 1; Table 3A
Description: (§1) The inhibitory effects of the various synthesized GHRH antagonists were tested in cell proliferation assays in various human cancer cell lines including stomach cancer (KATOIII, N87), colon cancer (HT-29), urothelial cancer (J82, RT4), pancreatic cancer (PANC-1, CFPAC-1), prostatic cancer (PC3), breast cancer (MX-1, HCC1806), ovarian cancer (SK-OV-3, OVCAR-3) and lung cancer (HCC827, H460).
(§2) Cell culture. Human cancer cell lines including pancreatic (PANC-1 and CFPAC-1), lung (HCC827 and H460), stomach (NCI-N87 and KATOIII), urothelial (J82, RT4), prostatic (PC3), breast (MX-1 and HCC 1806), colorectal (HT-29), and ovarian (SK-OV-3 and OVCAR-3) were obtained from the American Type Culture Collection (ATCC) and cultured at 37° C. in a humidified 95% air/5% CO2 atmosphere in the medium recommended by ATCC.
(§3) In vitro cell viability. Cell viability was analyzed as follows: cancer cells including pancreatic (PANC-1 and CFPAC-1), lung (HCC827 and H460), stomach (NCI-N87 and KATOIII), urothelial (J82, RT4), prostatic (PC3) and breast (MX-1 and HCC 1806), colorectal (HT-29) and ovarian (SK-OV-3 and OVCAR-3) were grown on 96 well plates to ˜60% confluence, the cells were starved for 24 h in culture medium containing 0.5% FBS. Cells were then treated with GHRH antagonists MIA602 AVR compounds at concentrations of 1, 2.5 or 5 μM, or vehicle (0.1% DMSO) in quintuplicates for 72 hours. The medium was replaced every 48 hours. Cell viability was measured using CellTiter 96 aqueous one solution kit (Promega). Inhibitory effects of tested AVR compounds in comparison to that of MIA602 are presented as inhibitory potency.
(§4) Inhibitory effects of selected AVR compounds in comparison to that of MIA602 are presented as inhibitory potency (e.g., percentage of inhibition). […] The cell lines tested including lung cancer HCC827 (FIG. 2A), pancreatic cancer CFPAC-1 (FIG. 2B), stomach cancer N87 (FIG. 2C), colon cancer HT-29 (FIG. 2D), breast cancers MX-1 and HCC1806 (FIGS. 2E, F). Based on the results of cell proliferation assay after cancer cells were treated with antagonist at concentration of 5 μM for 72H, the relative inhibitory potency of AVR antagonists in comparison to MIA-602 is summarized in Table 3 A and B. Over 60 AVR compounds were tested in 12 cancer cell lines.

HCC827 cells = assay: In vitro cell viability, lung cancer HCC827; format: cell-based, human; conditions: 5 μM, 72 h; for Relative inhibitory potency, Lung HCC827: relative to MIA602 = 1, Table 3A
Procedure, shortened: (§5)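 Cells grown to ~60% confluence and serum-starved 24 h in 0.5% FBS, then exposed to antagonists at 5 μM (some at 2 μM) for 72 h in quintuplicate, with medium replaced every 48 h. Viability read by CellTiter 96 AQueous One (MTS). Values are inhibition relative to MIA602.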

CFPAC-1 cells = assay: In vitro cell viability, pancreatic cancer CFPAC-1; format: cell-based, human; conditions: 5 μM, 72 h; for Relative inhibitory potency, Pancreatic CFPAC-1: relative to MIA602 = 1, Table 3A
Procedure, shortened: as §5

NCI-N87 cells = assay: In vitro cell viability (CellTiter 96), stomach cancer N87; format: cell-based, human; conditions: 5 μM, 72 h; for Relative inhibitory potency, Stomach N87: relative to MIA602 = 1, Table 3A
Description: as §1, §2, §3, §4
Based on the results of cell proliferation assay after cancer cells were treated with antagonist at concentration of 5 µM for 72H, * at concentration of 2 µM for 72 H.

[1] = target: T1, membrane GHRH-receptors on human anterior pituitary cells (Homo sapiens, UniProt Q02643); assay: Competitive receptor binding, displacement of 125I-[His1,Nle27]-hGH-RH(1-32)NH2 from human pituitary membranes
T1 construct: Human pituitary was purchased from the National Hormone and Peptide Program; tissue National Hormone and Peptide Program; host or cells: human pituitary membrane fractions
T1 sequence (Q02643 23-423): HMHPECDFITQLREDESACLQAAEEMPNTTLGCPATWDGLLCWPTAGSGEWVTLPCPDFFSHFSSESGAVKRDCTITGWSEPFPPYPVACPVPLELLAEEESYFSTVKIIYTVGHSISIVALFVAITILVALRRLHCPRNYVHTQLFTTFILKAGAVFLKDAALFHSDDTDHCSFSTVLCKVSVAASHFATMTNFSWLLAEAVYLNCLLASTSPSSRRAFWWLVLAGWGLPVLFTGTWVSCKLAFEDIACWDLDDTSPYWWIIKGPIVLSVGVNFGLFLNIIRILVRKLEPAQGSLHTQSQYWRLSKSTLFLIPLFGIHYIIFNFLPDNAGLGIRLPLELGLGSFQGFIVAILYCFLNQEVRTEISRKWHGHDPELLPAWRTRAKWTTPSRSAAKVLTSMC
Description: Receptor binding affinities in vitro. Preparation of human pituitary membrane fractions and receptor binding of analogs of GH-RH were performed (Halmos G, Rekasi Z, Szoke B, Schally A V. (1993) Receptor 3:87-97). Human pituitary was purchased from the National Hormone and Peptide Program. […] Relative affinities compared to hGH-RH(1-29)NH2 were calculated as the ratio of IC50 (dose causing 50% inhibition of specific binding to receptors) of the tested peptides to the IC50 of hGH-RH(1-29)NH2. The values were calculated from technical duplicate tubes.
Nineteen new AVR analogs of GHRH were tested in the receptor binding assay. Table 6 presents the IC50 values of GHRH antagonists to membrane GHRH-receptors binding on human anterior pituitary cells.

PANC-1 cells = assay: In vitro cell viability, pancreatic cancer PANC-1; format: cell-based, human; conditions: 5 μM, 72 h; relative to MIA602 = 1; Table 3A
Description: as §1, §2, §3, §4

SMILES	Relative inhibitory potency, Stomach KATOIII (KATOIII cells)	Relative inhibitory potency, Urothelial J82 (J82 cells)	Relative inhibitory potency, Lung HCC827 (HCC827 cells)	Relative inhibitory potency, Pancreatic CFPAC-1 (CFPAC-1 cells)	Relative inhibitory potency, Stomach N87 (NCI-N87 cells)	IC50 ([1]; human anterior pituitary membranes, mean of two to three determinations, read-out: IC50)	Relative inhibitory potency, Pancreatic Panc-1 (PANC-1 cells)	In vitro relative inhibitory potency in comparison to MIA-602, HCC827 (HCC827 cells; Table 3B)	In vitro relative inhibitory potency in comparison to MIA-602, CFPAC-1 (CFPAC-1 cells; Table 3B)	In vitro relative inhibitory potency in comparison to MIA-602, NCI-N87 (NCI-N87 cells; Table 3B)	IC50 [1]
CCCC[C@H](NC(=O)[C@@H](NC(=O)[C@H](CC(=O)O)NC(=O)[C@H](CCC(N)=O)NC(=O)[C@H](CC(C)C)NC(=O)[C@H](CC(C)C)NC(=O)[C@H](CCCCN)NC(=O)[C@H](CCCNC(=N)N)NC(=O)[C@H](C)NC(=O)[C@H](CO)NC(=O)[C@H](CC(C)C)NC(=O)[C@H](CCC(N)=O)NC(=O)[C@H](CC)NC(=O)[C@H](CC(C)C)NC(=O)[C@@H](NC(=O)[C@H](CCCCN)NC(=O)[C@H](CCCNC(=N)N)NC(=O)[C@H](Cc1ccc(OC)cc1)NC(=O)[C@H](CCCCNC(=N)N)NC(=O)[C@H](C)NC(=O)[C@@H](NC(=O)[C@H](Cc1c(F)c(F)c(F)c(F)c1F)NC(=O)[C@@H](NC(=O)[C@H](C)NC(=O)[C@H](CC(=O)O)NC(=O)[C@@H](CCCNC(=N)N)NC(=O)[C@H](Cc1ccc(O)cc1)NC(=O)CCCCCCCCCCCNC(=O)Cc1c(F)c(F)c(F)c(F)c1F)[C@@H](C)CC)[C@@H](C)O)C(C)C)[C@@H](C)CC)C(=O)N[C@H](CCCNC(=N)N)C(=O)N[C@@H](CCCCNC(=N)N)C(=O)NC [AVR-235] ({Phenylacetyl(2,3,4,5,6-F5)-12Ado}-Y[dR]DAI[Phe(F5)]TA[hArg]Y(Me)RKVL[Abu]QLSARKLLQDI[Nle][dR][hArg]-NHMe)	1.220	1.518	1.506	1.399	2.911	0.49 nM	1.139				
CCCC[C@H](NC(=O)[C@@H](NC(=O)[C@H](CC(=O)O)NC(=O)[C@H](CCC(N)=O)NC(=O)[C@H](CC(C)C)NC(=O)[C@H](CC(C)C)NC(=O)[C@H](CCCN)NC(=O)[C@H](Cc1c[nH]cn1)NC(=O)[C@H](C)NC(=O)[C@H](CO)NC(=O)[C@H](CC(C)C)NC(=O)[C@H](CCC(N)=O)NC(=O)[C@H](CC)NC(=O)[C@H](CC(C)C)NC(=O)[C@@H](NC(=O)[C@H](CCCN)NC(=O)[C@H](Cc1c[nH]cn1)NC(=O)[C@H](Cc1ccc(OC)cc1)NC(=O)[C@H](CCCCNC(=N)N)NC(=O)[C@H](C)NC(=O)[C@@H](NC(=O)[C@H](Cc1c(F)c(F)c(F)c(F)c1F)NC(=O)[C@@H](NC(=O)[C@H](C)NC(=O)[C@H](CC(=O)O)NC(=O)[C@@H](CCCNC(=N)N)NC(=O)[C@H](Cc1ccc(O)cc1)NC(=O)CCCCCCCCCCCNC(=O)Cc1ccccc1)[C@@H](C)CC)[C@@H](C)O)C(C)C)[C@@H](C)CC)C(=O)N[C@H](CCCNC(=N)N)C(=O)N[C@@H](CCCCNC(=N)N)C(N)=O [MIA-602, PhAC-Ada, Tyr D-Arg, Asp, Ala, Ile, 5FPhe, Thr, Ala, Har, Tyr(Me), His, Orn, Val, Leu, Abu, Gin, Leu, Ser, Ala, His, Orn, Leu, Leu, Gin, Asp, Ile, Nle, D-Arg, Har NH2, reference compound] ({PhAc-12Ado}-Y[dR]DAI[Phe(F5)]TA[hArg]Y(Me)H[Orn]VL[Abu]QLSAH[Orn]LLQDI[Nle][dR][hArg]-NH2)	1	1	1	1	1		1	1	1	1	0.27 nM
